Laboratory results: patent publication US7964531B2, “3-phenoxy-4-pyridazinol derivatives and herbicidal composition containing the same” (Mitsui Chemicals Agro, Inc., priority 2001, dated 2011)

| SMILES | melting point |
| --- | --- |
| COc1cccc(F)c1Oc1nnc(Cl)cc1O [Compound No. 732, 6-Chloro-3-(2-fluoro-6-methoxyphenoxy)-4-pyridazinol] | 190 to 194 °C |
| Oc1cc(Cl)nnc1Oc1c(Cl)cccc1Br [Compound No. 734, 3-(2-Bromo-6-chlorophenoxy)-6-chloro-4-pyridazinol] | 266 to 274 °C |
| Oc1cc(Cl)nnc1Oc1c(Cl)cccc1I [Compound No. 735, 6-Chloro-3-(2-chloro-6-iodophenoxy)-4-pyridazinol] | 262 to 264 °C |
| CCc1cccc(Cl)c1Oc1nnc(Cl)cc1O [Compound No. 737, 6-Chloro-3-(2-chloro-6-ethylphenoxy)-4-pyridazinol] | 194 to 195 °C |
| CC(C)c1cccc(Cl)c1Oc1nnc(Cl)cc1O [Compound No. 738, 6-Chloro-3-(2-chloro-6-isopropylphenoxy)-4-pyridazinol] | 218 to 233 °C |
| Oc1cc(Cl)nnc1Oc1c(Cl)cccc1C1CC1 [Compound No. 740, 6-Chloro-3-(2-chloro-6-cyclopropylphenoxy)-4-pyridazinol] | 224 to 225 °C |
| C=C(C)Cc1cccc(Cl)c1Oc1nnc(Cl)cc1O [Compound No. 746, 6-Chloro-3-[2-chloro-6-(2-methyl-2-propenyl)phenoxy]-4-pyridazinol] | 198 to 200 °C |
| Oc1cc(Cl)nnc1Oc1c(Br)cccc1Br [Compound No. 756, 6-Chloro-3-(2,6-dibromophenoxy)-4-pyridazinol] | 274 to 278 °C |
| Cc1cccc(Br)c1Oc1nnc(Cl)cc1O [Compound No. 758, 3-(2-Bromo-6-methylphenoxy)-6-chloro-4-pyridazinol] | 242 to 243 °C |
| CCc1cccc(Br)c1Oc1nnc(Cl)cc1O [Compound No. 759, 3-(2-Bromo-6-ethylphenoxy)-6-chloro-4-pyridazinol] | 215 to 217 °C |
| CC(C)c1cccc(Br)c1Oc1nnc(Cl)cc1O [Compound No. 760, 3-(2-Bromo-6-isopropylphenoxy)-6-chloro-4-pyridazinol] | 232 to 253 °C (dec.) |
| CC(C)(C)c1cccc(Br)c1Oc1nnc(Cl)cc1O [Compound No. 761, 3-(2-Bromo-6-tert-butylphenoxy)-6-chloro-4-pyridazinol] | 240 to 247 °C |
| Oc1cc(Cl)nnc1Oc1c(Br)cccc1C1CC1 [Compound No. 762, 3-(2-Bromo-6-cyclopropylphenoxy)-6-chloro-4-pyridazinol] | 230 to 232 °C |
| COc1cccc(Br)c1Oc1nnc(Cl)cc1O [Compound No. 778, 3-(2-Bromo-6-methoxyphenoxy)-6-chloro-4-pyridazinol] | 220 to 221 °C |
| Cc1cccc(I)c1Oc1nnc(Cl)cc1O [Compound No. 780, 6-Chloro-3-(2-iodo-6-methylphenoxy)-4-pyridazinol] | 250 to 252 °C |
| CCc1cccc(I)c1Oc1nnc(Cl)cc1O [Compound No. 781, 6-Chloro-3-(2-ethyl-6-iodophenoxy)-4-pyridazinol] | 242 to 244 °C |
| CC(C)c1cccc(I)c1Oc1nnc(Cl)cc1O [Compound No. 782, 6-Chloro-3-(2-iodo-6-isopropylphenoxy)-4-pyridazinol] | 250 to 255 °C |
| Cc1cccc(C)c1Oc1nnc(Cl)cc1O [Compound No. 801, 6-Chloro-3-(2,6-dimethylphenoxy)-4-pyridazinol] | 214 to 215 °C |
| Cc1cccc(C(C)C)c1Oc1nnc(Cl)cc1O [Compound No. 803, 6-Chloro-3-(2-isopropyl-6-methylphenoxy)-4-pyridazinol] | 215 to 220 °C |
| CCC(C)c1cccc(C)c1Oc1nnc(Cl)cc1O (stereo not drawn) [Compound No. 804, 3-(2-s-Butyl-6-methylphenoxy)-6-chloro-4-pyridazinol] | 187 to 189 °C |
| Cc1cccc(C(C)(C)C)c1Oc1nnc(Cl)cc1O [Compound No. 805, 3-(2-tert-Butyl-6-methylphenoxy)-6-chloro-4-pyridazinol] | 135 to 136 °C |
| Cc1cccc(C2CC2(Cl)Cl)c1Oc1nnc(Cl)cc1O (stereo not drawn) [Compound No. 827, 6-Chloro-3-[2-(2,2-dichlorocyclopropyl)-6-methylphenoxy]-4-pyridazinol] | 213 to 215 °C |
| CCc1cccc(CC)c1Oc1nnc(Cl)cc1O [Compound No. 846, 6-Chloro-3-(2,6-diethylphenoxy)-4-pyridazinol] | 181 to 185 °C |
| CCCc1cccc(CCC)c1Oc1nnc(Cl)cc1O [Compound No. 890, 6-Chloro-3-(2,6-dipropylphenoxy)-4-pyridazinol] | 191 to 193 °C |
| CC(C)c1cccc(C2CC2)c1Oc1nnc(Cl)cc1O [Compound No. 896, 6-Chloro-3-(2-cyclopropyl-6-isopropylphenoxy)-4-pyridazinol] | 242 to 245 °C |
| CC(C)c1cccc([N+](=O)[O-])c1Oc1nnc(Cl)cc1O [Compound No. 911, 6-Chloro-3-(2-isopropyl-6-nitrophenoxy)-4-pyridazinol] | 205 to 209 °C |

| SMILES | melting point |
| --- | --- |
| CC(C)(C)c1cccc(C2CC2)c1Oc1nnc(Cl)cc1O [Compound No. 914, 3-(2-tert-Butyl-6-cyclopropylphenoxy)-6-chloro-4-pyridazinol] | 230 to 231 °C |
| Oc1cc(Cl)nnc1Oc1c(C2CC2)cccc1C1CC1 [Compound No. 931, 6-Chloro-3-(2,6-dicyclopropylphenoxy)-4-pyridazinol] | 232 to 234 °C |
| COc1cccc(C2CC2)c1Oc1nnc(Cl)cc1O [Compound No. 964, 6-Chloro-3-(2-cyclopropyl-6-methoxyphenoxy)-4-pyridazinol] | 194 to 199 °C |
| CCOc1cccc(C2CC2)c1Oc1nnc(Cl)cc1O [Compound No. 965, 6-Chloro-3-(2-cyclopropyl-6-ethoxyphenoxy)-4-pyridazinol] | 174 to 179 °C |
| C/C=C/c1cccc(/C=C/C)c1Oc1nnc(Cl)cc1O [Compound No. 979, 6-Chloro-3-{2,6-di[(1E)-1-propenyl]phenoxy}-4-pyridazinol] | 163 to 164 °C |
| C=CCc1cccc(CC=C)c1Oc1nnc(Cl)cc1O [Compound No. 982, 6-Chloro-3-(2,6-diallylphenoxy)-4-pyridazinol] | 131 to 135 °C |
| COc1cccc(OC)c1Oc1nnc(Cl)cc1O [Compound No. 987, 6-Chloro-3-(2,6-dimethoxyphenoxy)-4-pyridazinol] | 199 to 201 °C |
| Cc1cc(C)cc(Oc2nnc(Cl)cc2O)c1 [Compound No. 998, 6-Chloro-3-(3,5-dimethylphenoxy)-4-pyridazinol] | 178 to 182 °C |
| Cc1cc(Oc2nnc(Cl)cc2O)cc(C(C)C)c1 [Compound No. 1000, 6-Chloro-3-(3-isopropyl-5-methylphenoxy)-4-pyridazinol] | 204 to 206 °C |
| CC(C)c1cc(Oc2nnc(Cl)cc2O)cc(C(C)C)c1 [Compound No. 1007, 6-Chloro-3-(3,5-diisopropylphenoxy)-4-pyridazinol] | 249 to 253 °C |
| Oc1cc(Cl)nnc1Oc1cc(C(F)(F)F)cc(C(F)(F)F)c1 [Compound No. 1009, 3-[3,5-Bis(trifluoromethyl)phenoxy]-6-chloro-4-pyridazinol] | 237 to 242 °C |
| Cc1cc(C)c(Br)c(Oc2nnc(Cl)cc2O)c1 [Compound No. 1013, 3-(2-Bromo-3,5-dimethylphenoxy)-6-chloro-4-pyridazinol] | 240 to 244 °C |
| Cc1cc(C)c(C)c(Oc2nnc(Cl)cc2O)c1 [Compound No. 1016, 6-Chloro-3-(2,3,5-trimethylphenoxy)-4-pyridazinol] | 223 to 224 °C |
| Cc1cc(C)c(C2CC2)c(Oc2nnc(Cl)cc2O)c1 [Compound No. 1023, 6-Chloro-3-(2-cyclopropyl-3,5-dimethylphenoxy)-4-pyridazinol] | 200 to 203 °C |
| CSc1c(C)cc(C)cc1Oc1nnc(Cl)cc1O [Compound No. 1027, 6-Chloro-3-[3,5-dimethyl-2-(methylsulfanyl)phenoxy]-4-pyridazinol] | 213 to 214 °C |
| Cc1ccc(C)c(Oc2nnc(Cl)cc2O)c1Br [Compound No. 1040, 3-(2-Bromo-3,6-dimethylphenoxy)-6-chloro-4-pyridazinol] | 255 to 257 °C |
| Cc1c(F)ccc(C2CC2)c1Oc1nnc(Cl)cc1O [Compound No. 1052, 6-Chloro-3-(6-cyclopropyl-3-fluoro-2-methylphenoxy)-4-pyridazinol] | 230 to 231 °C |
| Cc1c(Cl)ccc(Br)c1Oc1nnc(Cl)cc1O [Compound No. 1053, 3-(6-Bromo-3-chloro-2-methylphenoxy)-6-chloro-4-pyridazinol] | 254 to 260 °C |
| Cc1ccc(Br)c(Oc2nnc(Cl)cc2O)c1C [Compound No. 1058, 3-(6-Bromo-2,3-dimethylphenoxy)-6-chloro-4-pyridazinol] | 263 to 268 °C |
| Cc1ccc(C2CC2)c(Oc2nnc(Cl)cc2O)c1C [Compound No. 1061, 6-Chloro-3-(6-cyclopropyl-2,3-dimethylphenoxy)-4-pyridazinol] | 229 to 234 °C |
| COc1ccc(Br)c(Oc2nnc(Cl)cc2O)c1C [Compound No. 1066, 3-(6-Bromo-3-methoxy-2-methylphenoxy)-6-chloro-4-pyridazinol] | 246 to 253 °C |
| COc1ccc(C2CC2)c(Oc2nnc(Cl)cc2O)c1C [Compound No. 1069, 6-Chloro-3-(6-cyclopropyl-3-methoxy-2-methylphenoxy)-4-pyridazinol] | 250 to 253 °C |
| Cc1ccc(C)c(C2CC2)c1Oc1nnc(Cl)cc1O [Compound No. 1073, 6-Chloro-3-(2-cyclopropyl-3,6-dimethylphenoxy)-4-pyridazinol] | 171 to 175 °C |
| C=CCc1c(OC)ccc(CC)c1Oc1nnc(Cl)cc1O [Compound No. 1080, 3-(2-Allyl-6-ethyl-3-methoxyphenoxy)-6-chloro-4-pyridazinol] | 183 to 186 °C |
| Cc1ccc2c(c1Oc1nnc(Cl)cc1O)CCC2 [Compound No. 1088, 6-Chloro-3-[(5-methyl-2,3-dihydro-1H-inden-4-yl)oxy]-4-pyridazinol] | 222 to 225 °C |
